In PubChem BioAssay (NCI):
Where “and” joins values, the source holds several entries; their conditions need not be identical. Equal entries are not always repeated.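 Briefly, cells in 96-well plates were exposed to five compound concentrations for 48 h, and endpoints were estimated by linear interpolation. GI50 marks 50% less growth. TGI denotes the concentration required for complete inhibition of growth.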

How the values were obtained:
Experiment in all cases: growth of human tumour cells (NCI), 48 h
SK-OV-3 ovarian = test system: SK-OV-3 ovarian
SF-539 CNS = test system: SF-539 CNS
OVCAR-5 ovarian = test system: OVCAR-5 ovarian
ACHN renal = test system: ACHN renal
SK-MEL-28 melanoma = test system: SK-MEL-28 melanoma
OVCAR-8 ovarian = test system: OVCAR-8 ovarian
SF-268 CNS = test system: SF-268 CNS
TK-10 renal = test system: TK-10 renal
SW-620 colon = test system: SW-620 colon
NCI-H460 lung = test system: NCI-H460 lung

Structure (SMILES)	TGI (SK-OV-3 ovarian)	TGI (SF-539 CNS)	TGI (OVCAR-5 ovarian)	TGI (ACHN renal)	TGI (SK-MEL-28 melanoma)	TGI (OVCAR-8 ovarian)	TGI (SF-268 CNS)	TGI (TK-10 renal)	TGI (SW-620 colon)	TGI (NCI-H460 lung)	GI50 (SF-539 CNS)	GI50 (OVCAR-5 ovarian)	GI50 (ACHN renal)	GI50 (SK-MEL-28 melanoma)	GI50 (TK-10 renal)	GI50 (SK-OV-3 ovarian)
C[C@@H]1C[C@@H]2OC(=O)[C@]3(C)[C@H]2[C@@H](OC3(C)O)[C@]2(C)C(=O)C=C[C@@H]12 (some centres not stated)	> 100 µM	> 100 µM	41 µM	45 µM	45 µM	> 100 µM	> 100 µM	> 100 µM	51.9 µM	–	–	–	–	–	–	–
O=S1(=O)N=C(SCc2c[nH]c3ccccc23)N(c2ccccc2)c2ccncc21	> 100 µM	80.5 µM	> 100 µM	> 100 µM	> 100 µM	> 100 µM	> 100 µM	> 100 µM	> 100 µM	> 100 µM	–	–	–	–	–	–
CSCSCC(CO)NC(=O)/C=C\c1c(C)[nH]c(=O)[nH]c1=O (configuration not stated)	74 µM	192 µM	277 µM	–	219 µM	89.9 µM	112 µM	–	207 µM	109 µM	–	–	–	–	–	–
CC(C)(C)N=C1C(=O)C2(C)CCC1C2(C)C (configuration not stated)	> 100 µM	> 100 µM	> 100 µM	> 100 µM	> 100 µM	> 100 µM	> 100 µM	> 100 µM	> 100 µM	> 100 µM	–	–	–	–	–	–
C=CCCCN(C(=O)c1ccccc1)c1ccc(C(=O)OC)o1	> 100 µM	> 100 µM	> 100 µM	> 100 µM	–	> 100 µM	> 100 µM	> 100 µM	–	> 100 µM	–	–	–	–	–	–
COc1ccc(/C=C/C(=O)c2cc(CN(C)C)c(O)c(CN(C)C)c2)cc1	–	> 100 µM	> 100 µM	> 100 µM	> 100 µM	> 100 µM	> 100 µM	> 100 µM	> 100 µM	49.3 µM	–	–	–	–	–	–
Cc1c2cc[n+](C)cc2c(C)c2c1[nH]c1ccc(OCC(F)(F)F)cc12	> 100 µM	–	> 100 µM	> 100 µM	> 100 µM	> 100 µM	0.638 µM	> 100 µM	> 100 µM	–	1.73 µM	12 µM and > 100 µM	12 µM and > 100 µM	5.31 µM and > 33.4 µM	13.5 µM and > 100 µM	–
COc1cccc(C2C(C#N)=C(N)Oc3cc(OCCCCCC[P+](c4ccccc4)(c4ccccc4)c4ccccc4)ccc32)c1 (configuration not stated)	3.26 µM	2.12 µM	3.15 µM	4.92 µM	1.69 µM	–	–	2.99 µM	–	–	0.745 µM	1.35 µM	2.04 µM	0.477 µM	1.46 µM	1.41 µM
CCC1OC2(C)CC(C#N)(C#N)C1(C#N)C(=N)O2 (configuration not stated)	> 100 µM	> 100 µM	> 100 µM	> 100 µM	> 100 µM	–	> 100 µM	> 100 µM	> 100 µM	–	–	–	–	–	–	–
COc1c(NC(C)=O)c2ccccc2c2ccccc12	–	–	> 100 µM	> 100 µM	> 100 µM	> 100 µM	> 100 µM	> 100 µM	> 100 µM	> 100 µM	–	–	–	–	–	–
O=c1cc(-c2ccccc2)oc2cc(OCCCCCCCCCCOc3ccc4c(=O)cc(-c5ccccc5)oc4c3)ccc12	> 100 µM	> 100 µM	> 100 µM	> 100 µM	> 100 µM	> 100 µM	–	–	> 100 µM	–	–	–	–	–	–	–
COc1ccc(-c2nc(-c3cnccn3)n(C/C=C/c3ccccc3)n2)cc1	> 100 µM	> 100 µM	> 100 µM	–	> 100 µM	> 100 µM	–	–	> 100 µM	> 100 µM	–	–	–	–	–	–
Oc1ccc(Nc2nc(Cl)c3[nH]cnc3n2)cc1	> 100 µM	> 100 µM	> 100 µM	> 100 µM	–	> 100 µM	> 100 µM	> 100 µM	> 100 µM	> 100 µM	–	–	–	–	–	–
Oc1c(NCn2nc(CCCCCCCCc3nn(CNc4ccc5ccccc5c4O)c(=S)o3)oc2=S)ccc2ccccc12	> 100 µM	–	> 100 µM	> 100 µM	> 100 µM	–	> 100 µM	> 100 µM	> 100 µM	> 100 µM	–	–	–	–	–	–
Cc1cc(C)c(S(=O)(=O)N(CCCCCN)OCCCN)c(C)c1	–	27 µM	33.7 µM	33.6 µM	32.2 µM	34.1 µM	37.6 µM	30.8 µM	36.3 µM	31.2 µM	–	–	–	–	–	–
N/C(=N\N=C/c1c(O)cc(O)cc1O)NO	> 100 µM	> 100 µM	> 100 µM	–	> 100 µM	> 100 µM	> 100 µM	–	> 100 µM	> 100 µM	–	–	–	–	–	–
COc1ccc(NCn2nc(CCCCCCCCc3nn(CNc4ccc(OC)cc4)c(=S)o3)oc2=S)cc1	> 100 µM	–	> 100 µM	> 100 µM	> 100 µM	–	> 100 µM	> 100 µM	> 100 µM	> 100 µM	–	–	–	–	–	–
CN1Cc2ccccc2C2(COc3ccccc3C2=O)C1 (configuration not stated)	> 100 µM	> 100 µM	> 100 µM	> 100 µM	–	> 100 µM	> 100 µM	> 100 µM	> 100 µM	> 100 µM	–	–	–	–	–	–
C/C(=N\Nc1nc2cc(F)ccc2s1)c1ccccn1	5.37 µM	> 23.4 µM	50.1 µM	1.35 µM	> 100 µM	1.79 µM	1.65 µM	–	5.37 µM	> 100 µM	–	–	–	–	–	–
CCOC(=O)c1cnc2n(c1=O)[C@H]1CCCC[C@@H]1N2	> 100 µM	> 100 µM	> 100 µM	> 100 µM	> 100 µM	> 100 µM	> 100 µM	–	> 100 µM	> 100 µM	–	–	–	–	–	–
COc1cc(/C=C2\N=C(c3ccccc3)N(c3cc4cc(Sc5ccccc5)ccc4[nH]3)C2=O)ccc1O	–	> 50 µM	> 50 µM	> 50 µM	> 50 µM	> 50 µM	–	–	> 50 µM	> 50 µM	–	–	–	–	–	–
Cc1ccc(N2Cc3c(ccc4ccccc34)OP2(=S)N2CCCC2)cc1 (configuration not stated)	> 100 µM	> 100 µM	> 100 µM	–	> 100 µM	> 100 µM	> 100 µM	–	> 100 µM	> 100 µM	–	–	–	–	–	–
C=CCN1C(=O)C[C@H](Cc2ccccc2)NC(=O)C[C@H](Cc2ccccc2)N(CC=C)C(=O)C[C@H](Cc2ccccc2)NC(=O)C[C@@H]1Cc1ccccc1	> 100 µM	> 100 µM	> 100 µM	–	> 100 µM	> 100 µM	> 100 µM	> 100 µM	> 100 µM	> 100 µM	–	–	–	–	–	–
